Assays:
[1] = tested on: larvae of mosquitoes Culex pipiens sensitive to propoxur; experiment: Insecticidal activity: larval mortality, propoxur-sensitive larvae; format: in vivo; settings: stage-4 larvae, mortality after 24 hours, log-Probit, read-out: LD50, Sensitive larvae
Protocol: (§1) The insecticidal activity of the compounds according to the invention denoted in table IV below is tested on larvae of mosquitoes Culex pipiens sensitive or resistant to the action of propoxur.
(§2) The larvae resistant or sensitive to propoxur are incubated in 24-well plates, at the rate of 15 stage-4 larvae per well, in 1 ml of tap water comprising different concentrations of compounds ranging from 0.31 to 50 μg/ml.
(§3) Larval mortality is measured after incubating for 24 hours. […] Cahiers ORSTOM, série Entomologie médicale et Parasitologie, 23(2), 117-121; Raymond, M., Prato, G. and Ratsira, D. (1993). PROBIT, CNRS-UMII, Licence L93019. Avenix, 34680 St. Georges d'Orques, France.), the homogeneity of the dose/response being tested. The effectiveness of the different compounds with regard to the resistant larvae, relative to the sensitive larvae, is estimated by the sensitive/resistant ratio.

[2] = target: T1, AChE1 activity of extracts of Culex pipiens larvae resistant to propoxur (G119S-mutated AChE) (Culex pipiens, UniProt Q86GC8, G247S); experiment: biochemical
T1 construct: from tissue; host or cells: whole larvae of propoxur-resistant Culex pipiens, Triton X100 homogenate supernatant
Protocol: (§4) The inhibitory properties of the compounds of the preceding table I are tested with regard to the AChE activity by either using a normal or G119S-mutated recombinant AChE or using extracts of larvae of mosquitoes which are sensitive (carrying normal AChE) or resistant (carrying G119S-mutated AChE) to organophosphorus compounds and carbamates.
(§5) The AChE activity is measured using the method described by Bourguet et al., Pest Biochem. Physiol., 1996, 55, 122-128, and which refers to the spectroscopic method described by Ellman G. L. et al. (Biochem. Pharmacol., 1961, 7, 88-95) using acetylthiocholine as substrate.
(§6) Larvae of Culex pipiens mosquitoes which are sensitive or resistant to propoxur are milled in 400 μl of 0.25M phosphate buffer comprising 1% Triton X100. The homogenates are centrifuged at 10 000 rpm for 3 minutes.
(§7) The effectiveness of the various compounds with regard to the resistant larvae, relative to the sensitive larvae, is estimated by the sensitive/resistant ratio.

[3] = tested on: AChE1 activity of extracts of Culex pipiens larvae resistant to propoxur (G119S-mutated AChE); experiment: biochemical; settings: IC50 on larval extracts, sensitive relative to resistant
Protocol: as §4, §5, §6, §7

[4] = target: T2, G119S-mutated recombinant Culex pipiens AChE1 (Culex pipiens, UniProt Q86GC8, G247S); experiment: biochemical
T2 construct: made in house; host or cells: Drosophila S2 cells (crude lysate supernatant)
Protocol: as §4, §5
(§8) The inhibitory properties of the compounds according to the invention with regard to the activity of a G119S-mutated or normal recombinant Culex pipiens AChE1 are tested according to protocol described by Weill et al., Nature, 2003, 423, 136-137.
(§9) Each compound according to the invention is tested at different concentrations on lysates of Drosophile S2 cells transfected with an empty expression vector or an expression vector expressing normal or mutated AChE1. After expression, the cells are centrifuged for 15 minutes at 14 000 rpm and are subsequently lysed in a 0.25 M phosphate buffer comprising 1% Triton X100.
(§10) 100 μl of supernatant originating from the centrifuging of the cell lysates at 10 000 rpm for 3 minutes are incubated for 15 minutes with 10 μl of each compound according to the invention at various concentrations.
(§11) The effectiveness of the various compounds with regard to the mutated AChE activity, relative to that of the normal AChE, is estimated by the sensitive/insensitive ratio.

[5] = tested on: G119S-mutated recombinant Culex pipiens AChE1; experiment: biochemical; settings: IC50 normal AChE1 relative to mutated AChE1, recombinant
Protocol: as §4, §5, §8, §9, §10, §11

[6] = target: T3, normal recombinant Culex pipiens AChE1 (Culex pipiens, UniProt Q86GC8); experiment: Inhibition of normal recombinant AChE1 (lysates of transfected Drosophile S2 cells, Ellman method); format: biochemical
T3 construct: made in house; host or cells: Drosophila S2 cells (crude lysate supernatant)
Protocol: as §4, §5, §8, §9, §10, §11

[7] = tested on: larvae of mosquitoes Culex pipiens resistant to propoxur; experiment: Insecticidal activity: larval mortality, propoxur-resistant larvae; format: in vivo; settings: for LC50: Culex pipiens, stage-4 larvae, mortality after 24 hours, log-Probit, read-out: LD50, Resistant larvae; for Sensitive/resistant ratio: LD50 larval mortality, sensitive relative to resistant
Protocol: as §1, §2, §3

[8] = target: T4, AChE1 activity of extracts of Culex pipiens larvae sensitive to propoxur (normal AChE) (Culex pipiens, UniProt Q86GC8); experiment: Inhibition of AChE1 activity in extracts of propoxur-sensitive mosquito larvae; format: biochemical; settings: extracts of propoxur-sensitive larvae, 15 minutes incubation; read-out: IC50, Sensitive larvae
T4 construct: from tissue; host or cells: whole larvae of propoxur-sensitive Culex pipiens, Triton X100 homogenate supernatant
Protocol: as §4, §5, §6, §7

Row | SMILES | LC50 [1] [µM] | IC50 [2] [µM] | Sensitive/resistant ratio [3] | IC50 [4] [µM] | Sensitive/insensitive ratio [5] | IC50 [6] [µM] | LC50 [7] [µM] | Sensitive/resistant ratio [7] | IC50 [8] [µM]
1 | Cc1ccc(C=C2C(=O)NC(=O)N(c3ccccc3)C2=O)o1 [(1), 5-[(5-methyl-2-furyl)methylene]-1-phenyl-2,4,6(1H,3H,5H)-pyrimidinetrione] | 310 | 6.2 | 4.7 | 23 | 1.47 | 34 | 143 | 2.2 | 29.4
2 | Cc1cccc(N2C(=O)NC(=O)C(=Cc3ccc(C)s3)C2=O)c1 [(2), 1-(3-methylphenyl)-5-[(5-methyl-2-thienyl)methylene]-2,4,6(1H,3H,5H)-pyrimidinetrione] | 455 | 28 | 15.5 | 43 | 0.90 | 39 | 170 | 2.7 | 442
3 | COc1cccc(N2C(=O)NC(=O)C(=Cc3ccc(C)s3)C2=O)c1 [(3), 1-(3-methoxyphenyl)-5-[(5-methyl-2-thienyl)methylene]-2,4,6(1H,3H,5H)-pyrimidinetrione] | 389 | 33 | 3.5 | 62 | 1.65 | 102 | 122 | 3.2 | 118
4 | Cc1ccc(C=C2C(=O)N(C)C(=O)N(C)C2=O)o1 [(4), 1,3-dimethyl-5-[(5-methyl-2-furyl)methylene]-2,4,6(1H,3H,5H)-pyrimidinetrione] | 576 | 7.5 | 9.8 | 31 | 2.40 | 73 | 200 | 2.9 | 74.3
5 | COc1ccc(N2C(=O)NC(=O)C(=Cc3ccc(C)o3)C2=O)cc1 [(5), 1-(4-methoxyphenyl)-5-[(5-methyl-2-furyl)methylene]-2,4,6(1H,3H,5H)-pyrimidinetrione] | 300 | 81 | 7.3 | 22 | 1.36 | 30 | 206 | 1.5 | 592
6 | Cc1ccc(C=C2C(=O)NC(=O)N(c3ccc(C(C)C)cc3)C2=O)o1 [(7), 1-(4-isopropylphenyl)-5-[(5-methyl-2-furyl)methylene]-2,4,6(1H,3H,5H)-pyrimidinetrione] | – | 21 | 6.1 | 72 | 1.78 | 128 | – | – | 132
7 | O=C1NC(=O)N(c2ccccc2)C(=O)C1=Cc1ccco1 [(9), 5-(2-furylmethylene)-1-phenyl-2,4,6(1H,3H,5H)-pyrimidinetrione] | – | – | – | 737 | 1.89 | 1390 | – | – | –
8 | CN1C(=O)C(=Cc2ccco2)C(=O)N(C)C1=O [(10), 5-(2-furylmethylene)-1,3-dimethyl-2,4,6(1H,3H,5H)-pyrimidinetrione] | – | – | – | 357 | 3.34 | 1190 | – | – | –
9 | Cc1ccc(N2C(=O)NC(=O)C(=Cc3ccc(C)o3)C2=O)cc1 [(11), 5-[(5-methyl-2-furyl)methylene]-1-(4-methylphenyl)-2,4,6(1H,3H,5H)-pyrimidinetrione] | – | 14 | 7.7 | 3.5 | 1.27 | 4.5 | – | – | 111
10 | COc1cccc(N2C(=O)NC(=O)C(=Cc3ccc(C)o3)C2=O)c1 [(12), 1-(3-methoxyphenyl)-5-[(5-methyl-2-furyl)methylene]-2,4,6(1H,3H,5H)-pyrimidinetrione] | – | 6 | 8.5 | 3.5 | 0.96 | 3.4 | – | – | 54
11 | CCOc1ccc(N2C(=O)NC(=O)C(=Cc3ccc(C)o3)C2=O)cc1 [(13), 1-(4-ethoxyphenyl)-5-[(5-methyl-2-furyl)methylene]-2,4,6(1H,3H,5H)-pyrimidinetrione] | – | 89 | 2.7 | 2.9 | 2.40 | 7.1 | – | – | 236
12 | Cc1ccc(C=C2C(=O)NC(=O)N(c3ccc(Br)cc3)C2=O)s1 [(14), 1-(4-bromophenyl)-5-[(5-methyl-2-thienyl)methylene]-2,4,6(1H,3H,5H)-pyrimidinetrione] | – | 142 | 15.0 | 11.1 | 0.87 | 9.6 | – | – | 2120
13 | Cc1ccc(C=C2C(=O)NC(=O)N(c3ccc(Cl)cc3)C2=O)s1 [(15), 1-(4-chlorophenyl)-5-[(5-methyl-2-thienyl)methylene]-2,4,6(1H,3H,5H)-pyrimidinetrione] | – | 177 | 6.9 | 8.7 | 1.00 | 8.7 | – | – | 1220
14 | Cc1ccc(C=C2C(=O)NC(=O)N(c3ccc(F)cc3)C2=O)s1 [(16), 1-(4-fluorophenyl)-5-[(5-methyl-2-thienyl)methylene]-2,4,6(1H,3H,5H)-pyrimidinetrione] | – | 22 | 22.5 | 8.6 | 1.99 | 17.1 | – | – | 490
15 | Cc1ccc(C=C2C(=O)NC(=O)N(c3ccc(C)c(C)c3)C2=O)o1 [(17), 1-(3,4-dimethylphenyl)-5-[(5-methyl-2-furyl)methylene]-2,4,6(1H,3H,5H)-pyrimidinetrione] | – | 35 | 12.2 | 8.5 | 1.85 | 15.7 | – | – | 424
16 | Cc1ccc(C=C2C(=O)NC(=O)N(Cc3ccco3)C2=O)o1 [(18), 1-(2-furylmethyl)-5-[(5-methyl-2-furyl)methylene]-2,4,6(1H,3H,5H)-pyrimidinetrione] | – | 37 | 7.1 | 4.8 | 2.10 | 10.1 | – | – | 260
17 | CCc1ccc(N2C(=O)NC(=O)C(=Cc3ccc(C)o3)C2=O)cc1 [(19), 1-(4-ethylphenyl)-5-[(5-methyl-2-furyl)methylene]-2,4,6(1H,3H,5H)-pyrimidinetrione] | – | 19 | 16.7 | 3.4 | 0.58 | 1.9 | – | – | 312
18 | CCCCN1C(=O)NC(=O)C(=Cc2ccc(C)s2)C1=O [(20), 1-butyl-5-[(5-methyl-2-thienyl)methylene]-2,4,6(1H,3H,5H)-pyrimidinetrione] | – | 152 | 1.0 | 15.5 | 0.78 | 12.1 | – | – | 153

— patent publication US8309556B2, “Use of compounds derived from pyrimidinetrione as acetyl cholinesterase inhibitors, compositions containing said derivatives, and the uses thereof” (priority 2005, dated 2012)
